According to article PMC12926040, “ADP-ribose is a competitive inhibitor of methanol dehydrogenases from Bacillus methanolicus” (The Journal of Biological Chemistry, 2025):

Legend:
BmMDH2 = BmMDH2 (Bacillus methanolicus, UniProt I3E949); experiment: Effect of metal ions on the activity of purified BmMDH2; format: biochemical; conditions: 1 mM metal ion, on ice 1 h; 50 mM propanol, 37 °C
Method: As a first step, different metal ions were directly incubated with BmMDH2 to determine their impact on its activity. The purified BmMDH2 was diluted to 10 μM in glycine-NaOH buffer (100 mM, pH 9.5) containing 1 mM of various metal ions. After incubation on ice for 1 h, the enzymatic activities were measured in glycine-NaOH buffer (100 mM, pH 9.5) containing 3 mM NAD^+, 1 μM BmMDH2, 0.1 mM various metal ions and 50 mM propanol at 37 °C.
(§1) The purified BmMDH2 at 10 μM was incubated with 1 mM of various metal ions on ice for 1 h, the enzyme activities were measured using 50 mM propanol as substrate at 37 °C. The activity of BmMDH2 incubated in the absence of metal ion was taken as 100%. Data are means ± SDs of three measurements. b. The recovery activity of metal ions-free BmMDH2 replenished with various metal ions. The metal ions in BmMDH2 were chelated with EDTA. The activity of BmMDH2 with Mn^2+ replenishment was taken as 100%. Data are means ± SDs of three measurements.

[1] = tested on: BmMDH2 free of metal ions; experiment: EDTA treatment of BmMDH2 and recovery of activity with metal ions; format: biochemical, Bacillus methanolicus MGA3
Method: To further characterize the specific activity of BmMDH2 containing different metal ions, the purified BmMDH2 was treated with EDTA to remove the metal ions it coordinated during expression or purification. The protein was incubated with 10 equivalents of EDTA in glycine-NaOH buffer (100 mM, pH 9.5) on the ice for 1 hour. Subsequently, the EDTA was removed from the protein using the HiTrap desalting column (Cytiva, CAT#17-1408-01). […] The BmMDH2 free of metal ions at 10 μM was incubated in glycine-NaOH buffer (100 mM, pH 9.5) containing 1 mM of various metal ions on ice for 1 h, followed by the analysis of the activity. […] Overall, the above results indicated the optimum metal ion for BmMDH2 activity was Mn^2+, which was also supplied in the rest of the research.
as §1, with “Fig. S12 The effect of metal ions on the activity of BmMDH2. a, The effect of metal ions on the activity of BmMDH2. The purified” for “The purified”

Chain of BmMDH2 (I3E949 entry or part of it): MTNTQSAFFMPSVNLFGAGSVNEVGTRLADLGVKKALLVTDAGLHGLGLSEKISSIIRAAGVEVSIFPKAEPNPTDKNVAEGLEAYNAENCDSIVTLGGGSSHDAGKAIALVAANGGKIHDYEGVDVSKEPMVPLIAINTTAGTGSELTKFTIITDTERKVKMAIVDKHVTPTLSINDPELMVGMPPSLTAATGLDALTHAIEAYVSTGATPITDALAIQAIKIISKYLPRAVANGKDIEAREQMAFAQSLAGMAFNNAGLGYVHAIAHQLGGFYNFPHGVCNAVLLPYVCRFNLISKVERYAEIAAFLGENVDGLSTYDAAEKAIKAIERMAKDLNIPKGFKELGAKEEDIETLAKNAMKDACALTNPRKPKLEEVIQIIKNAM

| Compound | effect of metal ion on BmMDH2 activity (BmMDH2) | recovery of activity of metal-free BmMDH2 ([1]; 1 mM metal ion, on ice 1 h) | BmMDH2 activity after EDTA treatment ([1]; 10 equivalents of EDTA, pH 9.5, on ice 1 hour) | activity of metal-free BmMDH2 replenished with metal ion ([1]; 1 mM metal ion, on ice 1 h) |
| --- | --- | --- | --- | --- |
| [Cu+2] [Cu^2+] | significantly inhibited | didn’t restore the activity |  |  |
| O=C(O)CN(CCN(CC(=O)O)CC(=O)O)CC(=O)O [EDTA, reference compound] |  |  | completely lost |  |
| [Mg+2] [Mg^2+] | slightly decreased | didn’t restore the activity |  |  |
| [Mn+2] [Mn^2+] | significantly enhanced |  |  | 1.04 ± 0.02 U/mg |
| [Ca+2] [Ca^2+] | slightly decreased | didn’t restore the activity |  |  |
| [Fe+2] [Fe^2+] | negligible effect |  |  |  |
| [Ni+2] [Ni^2+] | slightly decreased |  |  |  |
| [Co+2] [Co^2+] | significantly enhanced |  |  |  |
| [Zn+2] [Zn^2+] | significantly inhibited | didn’t restore the activity |  |  |
